Experiments:
Assay type in all cases: in vivo, rat (male Sprague-Dawley)
fed, healthy rats [1] = test: Triglyceride-lowering effect in blood plasma of fed, healthy rats; conditions: for (B) Triglycerides (%), change vs placebo-treated control animals: blood plasma, fed healthy rats, oral 100 μmol/kg for 16 days, 24 hours after last administration, mean of 10
Method: (§1) What is stated are the changes in per cent of the animals which have been treated with substance, compared to control animals which were treated with placebo, calculated from the mean values of in each case 10 individual values.
(§2) The test animals used were male Sprague-Dawley rats from the SPF breed Ivanovas (Kisslegg, Germany) having a body mass of 255-400 g. The animals were kept in a conventional manner, 4 animals each in cages made of Makrolon (22×38 cm) in a climatized room (21-23 degrees Celsius) with a fixed day/night rhythm (7a.m/7p.m) and a regulated relative atmospheric humidity of 55-60%. The animals received a maintenance diet—Altromin 1320 from Altromin (Lage, Germany)—and water ad libitum.
(§3) The animals were divided at random in 5 groups of 10 animals each and marked. The substances were administered to the animals in the form of a neutral, aqueous emulsion (1 part by weight of substance+2 parts by weight of Cremophor EL—an emulsifier from BASF AG, Germany—) in a volume of 10 ml/kg of body weight using a stomach tube.
(§4) To determine the parameters triglycerides, cholesterol and the activity of the glutamic-pyruvic transaminase (GPT), blood plasma was used. The blood plasma was obtained as an erythrocyte-free supernatant 15 minutes after venous blood sampling into heparinized Eppendorf reaction vessels by centrifugation (2×2 minutes at 16,000 rpm in an Eppendorf centrifuge).
Enzymatic test with lipase/glycerokinase, test combination from Boehringer Mannheim, Germany.

healthy, fed rats [2] = test: Pharmacological safety index; conditions: for (C) Safety index (%): lowering of glucose + triglycerides + cholesterol in per cent divided by increase of GPT activity + relative heart weight in per cent, higher = safer; for Safety index compared to the prior art: result in words, from Table 2
From the text: The higher the index, the greater the safety of the substance.

healthy, fed rats [3] = test: Increase in activity of liver enzyme glutamic-pyruvate transaminase (GPT) in blood plasma; conditions: oral equimolar doses for 16 days, 24 hours after last administration
From the text: as §2, §3, §4
Kinetic enzyme test, test combination from Boehringer Mannheim, Germany.

fed, healthy rats [4] = test: Cholesterol-lowering effect in blood plasma of fed, healthy rats; conditions: oral 100 μmol/kg for 16 days, 24 hours after last administration, mean of 10
Method: as §1, §2, §3, §4
Enzymatic colour test (CHOD-PAP method), test combination from Boehringer Mannheim, Germany.

[5] = tested on: insulin-resistant rats (after 24 hour fasting); test: Blood glucose-lowering effect in insulin-resistant (24 hour fasted) rats; conditions: for (A) Glucose (%), change vs placebo-treated control animals: blood, rats fasted 24 hours, 2 hours after oral administration of 100 μmol/kg, mean of 10 animals; for Superiority compared to the prior art with respect to lowering glucose after fasting: fasting as experimental model of insulin resistance, result in words
Method: The compounds of the formula I according to the invention lower the glucose concentration in the blood of rats which have been made insulin-resistant by prolonged fasting.
as §1, §2
To determine the effect of the substance on blood glucose, feed was withdrawn 24 hours before the administration of the substance to produce an insulin-resistant condition.
as §3
To determine the glucose in the blood, 50 μl of blood were collected from the retrobulbular venousplexus 2 hours after the administration of the substance, using a glass capillary, from animals which had been fasting for 24 hours, and the blood was deproteinated in ice-cold perchloric acid (0.66 mol/l). After centrifugation, the glucose was determined in the supernatant using enzymatic standard methods.
Enzymatic test with hexokinase/[…], test combination from Boehringer Mannheim, Germany.

healthy, fed rats [6] = test: Increase of relative weight of the heart (cardiac hypertrophy); conditions: weight of heart/100 g body weight, oral equimolar doses for 16 days, 24 hours after last administration
From the text: as §2, §3
The animals were killed by decapitation and exsanguination, and the weight of the heart muscle, which had been freed from the right atrium, was determined by weighing and based on 100 g of body. weight.

Row | Structure (SMILES) | (B) Triglycerides (%), change vs placebo-treated control animals (fed, healthy rats [1]) [%] | Effect compared to the prior art, taking into account the triglyceride- and cholesterol-lowering effect (fed, healthy rats [1]; result in words, from Tab. 1) | (C) Safety index (%) (healthy, fed rats [2]) | Safety index compared to the prior art (healthy, fed rats [2]) | (A) GPT activity (%), increase (healthy, fed rats [3]) [%] | (C) Cholesterol (%), change vs placebo-treated control animals (fed, healthy rats [4]) [%] | (A) Glucose (%), change vs placebo-treated control animals [5] [%] | Superiority compared to the prior art with respect to lowering glucose after fasting [5] | (B) Relative weight of the heart (%), increase (healthy, fed rats [6]) [%]
1 | CCOC(=O)C1(CCCCCOc2ccc(OC(F)F)cc2)CO1 (stereo not drawn) [Substance 3] | −73 | superior to the prior art | 5.48 | superior to the prior art | 12 | −26 | −27 | particularly pronounced | 11
2 | CCOC(=O)C1(CCCCCCOc2ccc(OC(F)F)cc2)CO1 (stereo not drawn) [Substance 2] | −69 | – | 5.74 | superior to the prior art | 5 | −13 | −27 | particularly pronounced | 14
3 | CCOC(=O)C1(CCCCCCOc2ccc(Cl)cc2)CO1 (stereo not drawn) [Substance 1] | −50 | – | 3.77 | – | 8 | −15 | −18 | – | 14
4 | CCOC(=O)C1(CCCCCOc2ccc(C(C)=O)cc2)CO1 (stereo not drawn) [Substance 4] | −41 | – | 56 | particularly superior to the prior art | −9 | −8 | −7 | – | −2
